Data reported in patent publication US20250314644A1, “METHODS COMPRISING DETECTION OF ADP-HEPTOSE” (CHILDREN'S HOSPITAL MEDICAL CENTER, priority 2023, published 2025).

Columns and labels:
[1] = tested on: Dnmt3a^−/− HSCs; assay: NF-κB activation in vitro (NF-κB^GFP reporter, immunoblot); format: cell-based, mouse; conditions: NF-κB^GFP HSCs compared to WT
Text: (§1) Because intestinal epithelial injury and dysbiosis mediate the expansion of Dnmt3a-mutant pre-leukemic cells was observed, Applicant evaluated whether this occurs because of ADP-heptose-mediated ALPK1 signaling. Indeed, Dnmt3a^−/− HSCs were exquisitely sensitive to ADP-heptose stimulation in vitro. […] Activation of NF-κB in Dnmt3a^−/− HSPCs occurred following treatment with ADP-heptose (FIG. 3L). […] Constitutive combined activation of NF-κB and MAPK, such as during chronic inflammation with IL-1β, promotes differentiation of HSCs at the expense of self-renewal, leading to depletion of the HSC population.
(§2) Dnmt3a^f/f and MxCre^+ (obtained from H. Lee Grimes Laboratory, CCHMC)^33, Alpk1^−/− (11 bp deletion in exon 3, C57BL/6N-Alpk1^em1Fsha/J, Cat no. 032561, Jackson Laboratory), Tifa^−/− (gift from Jun-Ichiro Inoue, University of Tokyo, Japan), and UBC-GFP (C57BL/6-Tg(UBC-GFP)30Scha/J, Cat no. 004353, Jackson Laboratory) mice were maintained on CD45.2+C57BL/6 background. NF-kB^GFP reporter mice were generously provided by C. Jobin. Throughout the study, CD45.1+B6.SJL-Ptprc^a (BoyJ) mice were used as recipients for BM transplantation experiments. […] Mice were bred, housed and monitored daily by laboratory staff and veterinary personnel for health and activity. […]
(§3) Protein concentration was evaluated by bicinchoninic acid (BCA) assay (Pierce, Cat #23225). […]

[2] = tested on: WT HSPCs; assay: as above; format: cell-based, mouse
Text: as §1, §2, §3

[3] = tested on: Dnmt3a^−/− mice; assay: Cytokines measured in BM fluid after ADP-heptose in vivo; design: species or system mouse
Experimental: FIG. 9 depicts the effects of ADP-heptose on inflammatory cytokines and downstream signaling. (A) Heatmap of differentially expressed cytokines and chemokines as measured in the BM fluid of Dnmt3a^WT, Dnmt3a^KO, and Dnmt3a^KO; Alpk1^KO mice treated with ADP-heptose (0.5 mg/kg) in vivo. (B) Immunoblotting performed on THP1 cells untreated or treated with ADP-heptose (1 μg/ml) in combination with DMSO (−), UBE2N inhibitor at 5 μM (+), UBE2N inhibitor at 10 μM (++), IRAK1/4 inhibitor at 0.25 μM (+), and IRAK1/4 inhibitor at 0.5 μM (++) for 30 minutes. (C) Immunoblot analysis of NF-kB modulators on THP1 wildtype (WT), IRAK1KO, IRAK4KO, IRAK1/4d^KO, MyD88KO, and TRAF6^KO cells upon treatment with ADP-heptose (1 μg/ml) for 30 minutes.
Dysregulation of innate immune and inflammatory states is implicated in pre-leukemic conditions and overt leukemia by creating an inflammatory environment suppressive for normal hematopoiesis while promoting leukemic stem and progenitor cell expansion. Moreover, chronic inflammation associated with CHIP is implicated in cardiovascular disease. […] First, to determine whether ADP-heptose treatment creates an inflammatory milieu, Dnmt3a^−/− and WT mice were treated with ADP-heptose and cytokines were measured in the BM fluid.

Compound: Nc1ncnc2c1ncn2[C@@H]1O[C@H](COP(=O)(O)OP(=O)(O)O[C@@H]2O[C@H]([C@H](O)CO)[C@@H](O)[C@H](O)[C@@H]2O)[C@@H](O)[C@H]1O [ADP-heptose, ADP-D-glycero-β-D-manno-heptose]
- NF-κB activation (NF-κB^GFP reporter) [1]: robust and sustained NF-κB activation
- concentration of ADP-heptose required to induce NF-κB activation [2]: > 1 µM
- cytokines in BM fluid (IL-1β, G-CSF, TNFα) [3]: elevated expression of numerous cytokines
